In the supplement of paper PMC10627819:

What was measured:
Assay in all cases: Bliss interaction score (quartile over a dose matrix) (fitness difference); higher = more antagonism (negative = synergy)
B. subtilis 168 = tested on: B. subtilis 168
Procedure, shortened: (§1)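 Fitness here means normalised growth, inferred for single drugs from the combination data. Growth was OD595 at entry into stationary phase, divided by the plate's robust no-drug mean and capped at 1. The Bliss score is observed minus expected fitness, with the expectation being the product, and its quartiles span technical, biological and donor/recipient replicates.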

S. aureus DSM 20231 = tested on: S. aureus DSM 20231
Procedure, shortened: as §1

S. aureus Newman = tested on: S. aureus Newman
Procedure, shortened: as §1

S. pneumoniae D39V = tested on: S. pneumoniae D39V
Procedure, shortened: as §1
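Note: first quartile when negative (synergy) and third quartile when positive (antagonism).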

Structure (SMILES) | Bliss interaction score (B. subtilis 168) | Bliss interaction score (S. aureus DSM 20231) | Bliss interaction score (S. aureus Newman) | Bliss interaction score (S. pneumoniae D39V) | Bliss interaction score (B. subtilis 168; main component drawn) | Bliss interaction score (S. aureus DSM 20231; main component drawn) | Bliss interaction score (S. aureus Newman; main component drawn) | Bliss interaction score (S. pneumoniae D39V; main component drawn)
CC[C@H]1OC(=O)[C@H](C)[C@@H](O[C@H]2C[C@@](C)(OC)[C@@H](O)[C@H](C)O2)[C@H](C)[C@@H](O[C@@H]2O[C@H](C)C[C@H](N(C)C)[C@H]2O)[C@](C)(O)C[C@@H](C)CN(C)[C@H](C)[C@@H](O)[C@]1(C)O [Azithromycin] + CN(C)[C@@H]1C(O)=C(C(N)=O)C(=O)[C@@]2(O)C(O)=C3C(=O)c4c(O)ccc(Cl)c4[C@@](C)(O)[C@H]3C[C@@H]12 [Clortetracycline] | -0.344 | -0.243 | -0.192 | -0.084 |  |  |  | 
O=C(O)[C@H]1/C(=C/CO)O[C@@H]2CC(=O)N21 [Clavulanic] + CN1C2=CC=CC=C2N=C3C1=CC=CC3=O [Pyocyanin] | 0.0338 | -0.0632 | 0.0849 | 0.0705 |  |  |  | 
CC1=C(C(=O)O)N2C(=O)[C@@H](NC(=O)[C@H](N)c3ccccc3)[C@H]2SC1 [Cephalexin] + C[C@@H](O)[C@H]1C(=O)N2C(C(=O)O)=C(SCCNC=N)C[C@H]12 [Imipenem] | -0.104 | 0.0677 | -0.0579 | -0.237 |  |  |  | 
C[n+]1ccc(-c2cc[n+](C)cc2)cc1 [Paraquat] + Oc1cc(Cl)ccc1Oc1ccc(Cl)cc1Cl [Triclosan] | -0.188 | 0.0434 | -0.0576 | 0.058 |  |  |  | 
CC1=C(C(=O)O)N2C(=O)[C@@H](NC(=O)[C@H](N)c3ccccc3)[C@H]2SC1 [Cephalexin] + C[C@H]1c2cccc(O)c2C(=O)C2=C(O)[C@]3(O)C(=O)C(C(N)=O)=C(O)[C@@H](N(C)C)[C@@H]3[C@@H](O)[C@@H]21 [Doxycycline] | -0.0302 | 0.0912 | 0.0562 | 0.183 |  |  |  | 
CC[C@H]1OC(=O)[C@H](C)[C@@H](O[C@H]2C[C@@](C)(OC)[C@@H](O)[C@H](C)O2)[C@H](C)[C@@H](O[C@@H]2O[C@H](C)C[C@H](N(C)C)[C@H]2O)[C@](C)(O)C[C@@H](C)CN(C)[C@H](C)[C@@H](O)[C@]1(C)O [Azithromycin] + O=C1CN(/N=C/c2ccc([N+](=O)[O-])o2)C(=O)N1 [Nitrofurantoin] | -0.117 | -0.0881 | -0.0835 | -0.215 |  |  |  | 
CC1=C(C(=O)O)N2C(=O)[C@@H](NC(=O)[C@H](N)c3ccccc3)[C@H]2SC1 [Cephalexin] + O=C(O[C@@H]1Cc2c(O)cc(O)cc2O[C@@H]1c1cc(O)c(O)c(O)c1)c1cc(O)c(O)c(O)c1 [EGCG] | -0.0668 | -0.071 | -0.115 | 0.0582 |  |  |  | 
Clc1ccc(COC(Cn2ccnc2)c2ccc(Cl)cc2Cl)c(Cl)c1 (stereo not given) [Miconazole] + Oc1cc(Cl)ccc1Oc1ccc(Cl)cc1Cl [Triclosan] | 0.0625 | 0.0712 | 0.0222 | 0.0535 |  |  |  | 
CC[C@H]1OC(=O)[C@H](C)[C@@H](O[C@H]2C[C@@](C)(OC)[C@@H](O)[C@H](C)O2)[C@H](C)[C@@H](O[C@@H]2O[C@H](C)C[C@H](N(C)C)[C@H]2O)[C@](C)(O)C[C@@H](C)CN(C)[C@H](C)[C@@H](O)[C@]1(C)O [Azithromycin] + CC[C@H]1OC(=O)[C@H](C)C(=O)[C@H](C)[C@@H](O[C@@H]2O[C@H](C)C[C@H](N(C)C)[C@H]2O)[C@](C)(OC)C[C@@H](C)C(=O)[C@H](C)[C@H]2N(CCCCn3cnc(-c4cccnc4)c3)C(=O)O[C@]12C [Telithromycin] | 0.0342 | -0.0311 | -0.0389 | 0.0272 |  |  |  | 
O=C(O)[C@H]1/C(=C/CO)O[C@@H]2CC(=O)N21 [Clavulanic] + CCC(C)C1C(=O)NC(=C)C(=O)NC(C(=O)NC(CSCC(C(=O)N1)NC(=O)/C(=C/C)/NC(=O)C(C(C)CC)N)C(=O)NC2C(SCC(NC(=O)CNC(=O)C3CCCN3C2=O)C(=O)NC(CCCCN)C(=O)NC4C(SCC(NC(=O)CNC(=O)C(NC(=O)C(NC(=O)C(NC(=O)CNC4=O)C)CC(C)C)CCSC)C(=O)NC(CC(=O)N)C(=O)NC(CCSC)C(=O)NC(CCCCN)C(=O)NC5C(SCC6C(=O)NC(C(=O)NC(CSC(C(C(=O)N6)NC(=O)C(NC5=O)C)C)C(=O)NC(CO)C(=O)NC(C(C)CC)C(=O)NC(CC7=CN=CN7)C(=O)NC(C(C)C)C(=O)NC(=C)C(=O)NC(CCCCN)C(=O)O)CC8=CN=CN8)C)C)C)CC(C)C [Nisin] |  |  |  |  | -0.0543 | 0.105 | 0.255 | -0.0543
O=C(O)[C@H]1/C(=C/CO)O[C@@H]2CC(=O)N21 [Clavulanic] + Clc1ccc(COC(Cn2ccnc2)c2ccc(Cl)cc2Cl)c(Cl)c1 [Miconazole] | 0.0639 | 0.101 | -0.0736 | 0.0698 |  |  |  | 
Cn1c2cccc(=O)c-2nc2ccccc21 [Pyocyanin] + CC[C@H]1OC(=O)[C@H](C)C(=O)[C@H](C)[C@@H](O[C@@H]2O[C@H](C)C[C@H](N(C)C)[C@H]2O)[C@](C)(OC)C[C@@H](C)C(=O)[C@H](C)[C@H]2N(CCCCn3cnc(-c4cccnc4)c3)C(=O)O[C@]12C [Telithromycin] | -0.0145 | 0.0313 | -0.0591 | -0.0564 |  |  |  | 
O=C(O)[C@H]1/C(=C/CO)O[C@@H]2CC(=O)N21 [Clavulanic] + CN(C)c1cc(NC(=O)CNC(C)(C)C)c(O)c2c1C[C@H]1C[C@H]3[C@H](N(C)C)C(O)=C(C(N)=O)C(=O)[C@@]3(O)C(O)=C1C2=O [Tigecycline] | 0.0342 | 0.0703 | -0.0659 | 0.0386 |  |  |  | 
CC1=C(C(=O)O)N2C(=O)[C@@H](NC(=O)[C@H](N)c3ccccc3)[C@H]2SC1 [Cephalexin] + CC[C@H]1OC(=O)[C@H](C)C(=O)[C@H](C)[C@@H](O[C@@H]2O[C@H](C)C[C@H](N(C)C)[C@H]2O)[C@](C)(OC)C[C@@H](C)C(=O)[C@H](C)[C@H]2N(CCCCn3cnc(-c4cccnc4)c3)C(=O)O[C@]12C [Telithromycin] | 0.0293 | 0.0639 | 0.0476 | 0.0359 |  |  |  | 
CC[C@H]1OC(=O)[C@H](C)[C@@H](O[C@H]2C[C@@](C)(OC)[C@@H](O)[C@H](C)O2)[C@H](C)[C@@H](O[C@@H]2O[C@H](C)C[C@H](N(C)C)[C@H]2O)[C@](C)(O)C[C@@H](C)CN(C)[C@H](C)[C@@H](O)[C@]1(C)O [Azithromycin] + CO[C@H]1/C=C/O[C@@]2(C)Oc3c(C)c(O)c4c(O)c(c(/C=N/N5CCN(C)CC5)c(O)c4c3C2=O)NC(=O)/C(C)=C\C=C\[C@H](C)[C@H](O)[C@@H](C)[C@@H](O)[C@@H](C)[C@H](OC(C)=O)[C@@H]1C [Rifampicin] | 0.0851 | 0.0531 | 0.0263 | -0.0821 |  |  |  | 
O=C(O)[C@H]1/C(=C/CO)O[C@@H]2CC(=O)N21 [Clavulanic] + CC(=O)NC[C@H]1CN(c2ccc(N3CCOCC3)c(F)c2)C(=O)O1 [Linezolid] | 0.0747 | -0.196 | 0.242 | -0.1 |  |  |  | 
O=C(O)[C@H]1/C(=C/CO)O[C@@H]2CC(=O)N21 [Clavulanic] + Oc1cc(Cl)ccc1Oc1ccc(Cl)cc1Cl [Triclosan] | 0.0658 | 0.081 | -0.0656 | 0.0445 |  |  |  | 
Oc1cc(Cl)ccc1Oc1ccc(Cl)cc1Cl [Triclosan] + CN[C@H](CC(C)C)C(=O)N[C@H]1C(=O)N[C@@H](CC(N)=O)C(=O)N[C@H]2C(=O)N[C@H]3C(=O)N[C@H](C(=O)N[C@H](C(=O)O)c4cc(O)cc(O)c4-c4cc3ccc4O)[C@H](O)c3ccc(c(Cl)c3)Oc3cc2cc(c3O[C@@H]2O[C@H](CO)[C@@H](O)[C@H](O)[C@H]2O[C@H]2C[C@](C)(N)[C@H](O)[C@H](C)O2)Oc2ccc(cc2Cl)[C@H]1O [Vancomycin] | 0.0377 | 0.0768 | 0.0453 | 0.0833 |  |  |  | 
CNC(C)C1CCC(N)C(OC2C(N)CC(N)C(OC3OCC(C)(O)C(NC)C3O)C2O)O1 (stereo not given) [Gentamicin] + CC1(C)S[C@@H]2[C@H](NC(=O)Cc3ccccc3)C(=O)N2[C@H]1C(=O)O [PenicillinG] |  |  |  |  | 0.0952 | 0.0582 | -0.0512 | 0.0914
CC1=C(C(=O)O)N2C(=O)[C@@H](NC(=O)[C@H](N)c3ccccc3)[C@H]2SC1 [Cephalexin] + CCC[C@@H]1C[C@@H](C(=O)N[C@@H]([C@H]2O[C@H](SC)[C@H](O)[C@@H](O)[C@H]2O)[C@H](C)Cl)N(C)C1 [Clindamycin] | -0.0509 | -0.0563 | 0.138 | 0.14 |  |  |  | 
O=C(O)[C@H]1/C(=C/CO)O[C@@H]2CC(=O)N21 [Clavulanic] + C[C@@H]1O[C@@H]1P(=O)(O)O [Fosfomycin] | -0.089 | 0.0474 | 0.258 | -0.0291 |  |  |  | 
CC1=C(C(=O)O)N2C(=O)[C@@H](NC(=O)[C@H](N)c3ccccc3)[C@H]2SC1 [Cephalexin] + O=C(O)[C@H]1/C(=C/CO)O[C@@H]2CC(=O)N21 [Clavulanic] | -0.0461 | 0.0895 | -0.0674 | -0.14 |  |  |  | 
O=C(O)[C@H]1/C(=C/CO)O[C@@H]2CC(=O)N21 [Clavulanic] + CCC[C@@H]1C[C@@H](C(=O)N[C@@H]([C@H]2O[C@H](SC)[C@H](O)[C@@H](O)[C@H]2O)[C@H](C)Cl)N(C)C1 [Clindamycin] | -0.0975 | -0.148 | 0.188 | -0.0802 |  |  |  | 
CC1=C(C(=O)O)N2C(=O)[C@@H](NC(=O)[C@H](N)c3ccccc3)[C@H]2SC1 [Cephalexin] + N[C@@H]1CONC1=O [CycloserineD] | -0.0367 | 0.0763 | -0.0487 | -0.117 |  |  |  | 
CN(N=O)C(=O)N[C@@H](C=O)[C@@H](O)[C@H](O)[C@H](O)CO [Streptozotocin] + CC[C@H]1OC(=O)[C@H](C)C(=O)[C@H](C)[C@@H](O[C@@H]2O[C@H](C)C[C@H](N(C)C)[C@H]2O)[C@](C)(OC)C[C@@H](C)C(=O)[C@H](C)[C@H]2N(CCCCn3cnc(-c4cccnc4)c3)C(=O)O[C@]12C [Telithromycin] | 0.0498 | 0.0346 | -0.0223 | 0.0699 |  |  |  | 
O=C(O)[C@H]1/C(=C/CO)O[C@@H]2CC(=O)N21 [Clavulanic] + CCC[C@@H]1C[C@@H](C(=O)N[C@@H]([C@H]2O[C@H](SC)[C@H](O)[C@@H](O)[C@H]2O)[C@@H](C)O)N(C)C1 [Lincomycin] | -0.0568 | -0.194 | 0.132 | 0.0627 |  |  |  | 
O=C(O)[C@H]1/C(=C/CO)O[C@@H]2CC(=O)N21 [Clavulanic] + C[n+]1ccc(-c2cc[n+](C)cc2)cc1 [Paraquat] | -0.0541 | 0.0962 | -0.0709 | 0.0522 |  |  |  | 
CC1=C(C(=O)O)N2C(=O)[C@@H](NC(=O)[C@H](N)c3ccccc3)[C@H]2SC1 [Cephalexin] + CC[C@H]1OC(=O)[C@H](C)[C@@H](O[C@H]2C[C@@](C)(OC)[C@@H](O)[C@H](C)O2)[C@H](C)[C@@H](O[C@@H]2O[C@H](C)C[C@H](N(C)C)[C@H]2O)[C@](C)(OC)C[C@@H](C)C(=O)[C@H](C)[C@@H](O)[C@]1(C)O [Clarithromycin] | 0.0576 | 0.0663 | 0.0874 | 0.0361 |  |  |  | 
O=C(O)[C@H]1/C(=C/CO)O[C@@H]2CC(=O)N21 [Clavulanic] + CC(C1CCC(C(O1)OC2C(CC(C(C2O)OC3C(C(C(CO3)(C)O)NC)O)N)N)N)NC [Gentamicin] |  |  |  |  | 0.105 | -0.273 | 0.288 | 0.0396
CC[C@H]1OC(=O)[C@H](C)C(=O)[C@H](C)[C@@H](O[C@@H]2O[C@H](C)C[C@H](N(C)C)[C@H]2O)[C@](C)(OC)C[C@@H](C)C(=O)[C@H](C)[C@H]2N(CCCCn3cnc(-c4cccnc4)c3)C(=O)O[C@]12C [Telithromycin] + CN[C@H](CC(C)C)C(=O)N[C@H]1C(=O)N[C@@H](CC(N)=O)C(=O)N[C@H]2C(=O)N[C@H]3C(=O)N[C@H](C(=O)N[C@H](C(=O)O)c4cc(O)cc(O)c4-c4cc3ccc4O)[C@H](O)c3ccc(c(Cl)c3)Oc3cc2cc(c3O[C@@H]2O[C@H](CO)[C@@H](O)[C@H](O)[C@H]2O[C@H]2C[C@](C)(N)[C@H](O)[C@H](C)O2)Oc2ccc(cc2Cl)[C@H]1O [Vancomycin] | 0.0487 | -0.0478 | 0.0259 | 0.0519 |  |  |  | 
